According to patent US8975228B2, “Use of boswellic acids for the prophylaxis and/or treatment of damage to and/or inflammation of the islets of Langerhans” (Fraunhofer-Gesellschaft zur Forderung der Angewandten …, priority 2010, dated 2015):

Columns and labels:
IL-2 [1] = conditions: in vitro, technical literature; cited from earlier work
[2] = molecular target: Cyclooxygenase 1 (prostaglandin) (Homo sapiens, UniProt P23219); conditions: in vitro, technical literature; cited from earlier work
IL-1β = conditions: in vitro, technical literature; cited from earlier work
NFK B = conditions: in vitro, technical literature; cited from earlier work
TNF-α [3] = conditions: in vitro, technical literature; cited from earlier work
Elastase = molecular target: T1, Elastase (Homo sapiens, UniProt P08246); conditions: in vitro, technical literature; cited from earlier work
T1 sequence (P08246 30-267): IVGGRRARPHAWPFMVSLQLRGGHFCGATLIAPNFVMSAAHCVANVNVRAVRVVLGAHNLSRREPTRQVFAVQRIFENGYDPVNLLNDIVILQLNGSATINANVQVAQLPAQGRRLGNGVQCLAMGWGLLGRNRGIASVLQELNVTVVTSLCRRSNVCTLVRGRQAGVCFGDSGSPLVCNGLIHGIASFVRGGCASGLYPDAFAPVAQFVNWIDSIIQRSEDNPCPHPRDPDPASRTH

IFN-γ [4] = experiment: Serum pro-inflammatory cytokines in MLD-STZ diabetic mice; assay type: in vivo, mouse; conditions: 10 days i.p.; BE 150 mg/kg, AKBA 15.0 mg/kg, KBA 7.5 mg/kg
Procedure: (§1) Male mice were injected i.p. 40 mg/kg STZ for 5 days (STZ group, group A). A second group was, in addition to STZ, treated i.p. with 150 mg/kg BE for 10 days (group STZ+BE, group B). A further group (group C) remained untreated. After 10 days blood samples were taken.
(§2) In further tests, 15.0 mg/kg AKBA or 7.5 mg/kg KBA respectively were administered instead of 150 mg/kg BE.
(§3) Ten days after daily i.p. injections of 150 mg/kg of boswellia extract, of 15.0 mg/kg AKBA or 7.5 mg/kg KBA in MLD-STZ animals (40 mg/kg i.p. for 5 days) the presence of cytokines was determined using the commercially available Multianalyte Array TM Kits (mouse-inflammatory cytokines, SA Bioscience Corporation, USA) according to the instructions on usage provided by the manufacturer. The cytokines IL-1A, IL-1B, IL-2, IFN-γ, IL-6 and TNF-α were ascertained.

IL-1B = experiment: as above; assay type: in vivo, mouse; conditions: 10 days i.p.; BE 150 mg/kg, AKBA 15.0 mg/kg, KBA 7.5 mg/kg
Procedure: as §1, §2, §3

IL-1A = experiment: as above; assay type: in vivo, mouse; conditions: 10 days i.p.; BE 150 mg/kg, AKBA 15.0 mg/kg, KBA 7.5 mg/kg
Procedure: as §1, §2, §3

IL-2 [5] = experiment: as above; assay type: in vivo, mouse; conditions: 10 days i.p.; BE 150 mg/kg, AKBA 15.0 mg/kg, KBA 7.5 mg/kg
Procedure: as §1, §2, §3

TNF-α [6] = experiment: as above; assay type: in vivo, mouse; conditions: 10 days i.p.; BE 150 mg/kg, AKBA 15.0 mg/kg, KBA 7.5 mg/kg
Procedure: as §1, §2, §3

IL-6 = experiment: as above; assay type: in vivo, mouse; conditions: 10 days i.p.; BE 150 mg/kg, AKBA 15.0 mg/kg, KBA 7.5 mg/kg
Procedure: as §1, §2, §3

islets of Langerhans = experiment: Histology of pancreas in MLD-STZ diabetic mice (H&E, anti-CD3, anti-activated caspase 3); assay type: in vivo, mouse; conditions: STZ 40 mg/kg i.p. 5 days; 10 days i.p. BE 150 mg/kg, AKBA 15 mg/kg or KBA 7.5 mg/kg; examined day 10
Description: (§4) The use of “multiple low dose streptozotocin” (MOL-STZ diabetes) is an acknowledged animal model for inducing diabetes that occurs frequently in association with insulitis, which corresponds to IDDM in humans. In the pathogenesis, macrophages and T-lymphocytes infiltrate the islets of Langerhans and the B-cells are destroyed. MLD-STZ induced diabetes is very well suited for investigating the anti-diabetic and/or anti-inflammatory effect of drugs on the pancreatic islets. For inducing MLD-STZ diabetes, a mouse is dosed with 40 mg/kg STZ per day intraperitoneally (i.p.) over 5 days. During this time there is no B-cell destruction. Only after 10 to 15 days after the first injection of STZ do signs of inflammation of the islets of Langerhans appear, when T-lymphocytes infiltrate and the B-cells are being destroyed. After about 16 days, the symptoms of the inflammation have disappeared again. Most B-cells have died. As a consequence, insulin secretion is reduced or no longer existent (cf. McEvoy et al. 1984, “Multiple low-dose streptozotocin-induced diabetes in the mouse”, Evidence for stimulation of a cytotoxic cellular immune response against an insulin-producing beta cell line, J Clin Invest, 74:715-22). This animal model of experimental induction of diabetes mellitus essentially corresponds with the pathogenesis of type 1 diabetes in young humans.
In order to investigate the effect of an extract containing boswellic acids on the damage and/or inflammation of the islets of Langerhans, a group of mice was dosed with streptozotocin alone and another group of mice was dosed with streptozotocin plus boswellic acid extract (a mixture of boswellic acids with an overall concentration of all boswellic acids of 62%) The aforesaid extract contained 5.51% KBA and 4.96% AKBA. From the 1st to the 10th day, C3M/HeN and Bk +/+ were administered i.p with a dose of 150 mg/kg body weight in male mice of strains bred in the laboratory. […]

[7] = Blood glucose level in MLD-STZ diabetic mice; assay type: in vivo, mouse; conditions: for STZ-induced increase of the blood glucose level: single substance i.p. daily 10 days, AKBA 15 mg/kg, KBA 7.5 mg/kg
Description: as §4
For inducing MLD-STZ diabetes, the animals were injected i.p. 40 mg/kg STZ a day for a period of five days. In group A the animals were additionally treated with 150 mg/kg BE i.p. for 5 days (FIG. 5A), in group B for 10 days (FIG. 5B) and in group C for 21 days (FIG. 5C).
The animals were treated for 5 days with STZ as described above. AKBA in solution in Tween 80 was injected i.p. daily for 10 days.

C3-Convertase = conditions: in vitro, technical literature; cited from earlier work
IFN-γ [8] = conditions: in vitro, technical literature; cited from earlier work
[9] = molecular target: T2, 5-Lipoxygenase (leukotriene) (Homo sapiens, UniProt P09917); conditions: in vitro, technical literature; cited from earlier work
T2 sequence (P09917 1-674): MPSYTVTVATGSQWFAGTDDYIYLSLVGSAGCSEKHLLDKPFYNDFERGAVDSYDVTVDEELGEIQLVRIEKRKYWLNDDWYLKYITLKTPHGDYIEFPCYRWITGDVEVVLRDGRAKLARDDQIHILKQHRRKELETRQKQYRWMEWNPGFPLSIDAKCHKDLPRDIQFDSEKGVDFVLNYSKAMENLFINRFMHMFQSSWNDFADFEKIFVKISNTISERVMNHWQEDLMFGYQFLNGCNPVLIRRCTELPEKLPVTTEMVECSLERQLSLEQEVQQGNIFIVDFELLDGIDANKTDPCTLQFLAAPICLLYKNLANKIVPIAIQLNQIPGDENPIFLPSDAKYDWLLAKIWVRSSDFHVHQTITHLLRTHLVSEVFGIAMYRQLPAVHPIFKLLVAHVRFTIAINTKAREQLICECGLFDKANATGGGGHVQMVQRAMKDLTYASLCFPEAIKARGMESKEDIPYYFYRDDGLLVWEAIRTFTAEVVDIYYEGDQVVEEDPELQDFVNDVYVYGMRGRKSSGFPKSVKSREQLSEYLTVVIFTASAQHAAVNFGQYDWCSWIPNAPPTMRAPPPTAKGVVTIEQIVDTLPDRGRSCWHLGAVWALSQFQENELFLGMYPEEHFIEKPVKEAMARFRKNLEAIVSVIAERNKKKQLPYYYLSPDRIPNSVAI

Cyclooxygenase 1 (prostaglandin), sequence (P23219 24-599): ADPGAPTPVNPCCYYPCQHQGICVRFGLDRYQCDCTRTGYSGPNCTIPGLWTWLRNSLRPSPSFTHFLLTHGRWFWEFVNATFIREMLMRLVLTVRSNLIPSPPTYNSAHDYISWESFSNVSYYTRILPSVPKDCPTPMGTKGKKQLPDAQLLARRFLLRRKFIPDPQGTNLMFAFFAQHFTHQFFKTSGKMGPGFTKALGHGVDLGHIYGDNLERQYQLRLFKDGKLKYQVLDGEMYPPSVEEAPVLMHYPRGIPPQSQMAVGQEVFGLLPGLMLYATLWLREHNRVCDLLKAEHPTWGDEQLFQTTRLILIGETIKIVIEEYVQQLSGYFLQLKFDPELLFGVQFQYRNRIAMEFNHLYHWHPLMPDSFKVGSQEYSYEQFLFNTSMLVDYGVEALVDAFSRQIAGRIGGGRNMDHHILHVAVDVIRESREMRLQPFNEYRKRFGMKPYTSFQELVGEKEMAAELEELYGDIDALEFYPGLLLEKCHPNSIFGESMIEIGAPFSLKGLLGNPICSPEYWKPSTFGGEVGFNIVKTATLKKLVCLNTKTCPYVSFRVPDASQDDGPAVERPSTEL

Structure (SMILES): CC(=O)O[C@@H]1CC[C@@]2(C)[C@@H](CC[C@]3(C)[C@@H]2C(=O)C=C2[C@@H]4[C@@H](C)[C@H](C)CC[C@]4(C)CC[C@]23C)[C@@]1(C)C(=O)O [AKBA, acetyl-11-keto-β-boswellic acid]
- Effect on IL-2 (IL-2 [1]): Lowered
- Effect on Cyclooxygenase 1 (prostaglandin) [2]: Lowered
- Effect on IL-1β (IL-1β): Lowered
- Effect on NFK B (NFK B): Lowered
- Effect on TNF-α (TNF-α [3]): Lowered
- Effect on Elastase (Elastase): Lowered
- STZ-induced increase in serum IFN-γ (IFN-γ [4]): reduced or prevented
- STZ-induced increase in serum IL-1B (IL-1B): reduced or prevented
- STZ-induced increase in serum IL-1A (IL-1A): reduced or prevented
- STZ-induced increase in serum IL-2 (IL-2 [5]): reduced or prevented
- STZ-induced increase in serum TNF-α (TNF-α [6]): reduced or prevented
- STZ-induced increase in serum IL-6 (IL-6): reduced or prevented
- Signs of apoptosis (activated caspase 3) (islets of Langerhans): only minor signs of apoptosis
- Signs of inflammation of the islets of Langerhans (H&E staining, T-lymphocytes by CD3) (islets of Langerhans): no signs of inflammation
- Blood glucose level after administration was discontinued after 10 days ([7]; AKBA 15 mg/kg i.p. 10 days): no significant further increase
- STZ-induced increase of the blood glucose level [7]: significant reduction
- Effect on C3-Convertase (C3-Convertase): Lowered
- Effect on IFN-γ (IFN-γ [8]): Lowered
- Effect on 5-Lipoxygenase (leukotriene) [9]: Lowered

Structure (SMILES): C[C@H]1[C@H](C)CC[C@]2(C)CC[C@]3(C)C(=CC(=O)[C@@H]4[C@@]5(C)CC[C@@H](O)[C@](C)(C(=O)O)[C@@H]5CC[C@]43C)[C@H]12 [KBA, 11-keto-β-boswellic acid]
- STZ-induced increase in serum IFN-γ (IFN-γ [4]): reduced or prevented
- STZ-induced increase in serum IL-1B (IL-1B): reduced or prevented
- STZ-induced increase in serum IL-1A (IL-1A): reduced or prevented
- STZ-induced increase in serum IL-2 (IL-2 [5]): reduced or prevented
- STZ-induced increase in serum TNF-α (TNF-α [6]): reduced or prevented
- STZ-induced increase in serum IL-6 (IL-6): reduced or prevented
- Signs of inflammation of the islets of Langerhans (H&E staining, T-lymphocytes by CD3) (islets of Langerhans): neither signs of inflammation
- STZ-induced increase of the blood glucose level [7]: reduced
